Experiments:
[1] = tested on: unresectable or metastatic melanoma; conditions: Phase 3 trial, P<0.001; cited from earlier work
B16-OVA tumors = assay: B16-OVA syngeneic melanoma tumor growth; type: in vivo, C57BL/6 mice; conditions: sixteen (16) days of treatment, regimens of Table 9
Procedure: B16-OVA cells (˜1×10^5) were implanted in C57BL/6 mice. Animals were evaluated periodically and when tumors attained a size of approximately 3 mm×3 mm, animals were then grouped randomly and treated for sixteen (16) days.
At the end of treatment animals were sacrificed and dissected to evaluate and sample tumor masts.

[2] = tested on: pancreatic adenocarcinoma; conditions: murine pancreatic adenocarcinoma; cited from earlier work
[3] = tested on: melanoma, renal cell carcinoma, and ovarian cancer; conditions: murine models; cited from earlier work
[4] = tested on: solid tumors, e.g. advanced or metastatic melanoma; assay: Biomarker findings in tumors; type: in vivo
From the text: Granzyme B is associated with cell death/apoptosis mediated by cytotoxic T lymphocytes (CTLs), natural killer (NK) cells, and cytotoxic T cells. Accordingly, in some embodiments, the biomarker is an observed increase in granzyme B expression in a tumor relative to a control. In some embodiments, the cancer is a solid tumor such as advanced or metastatic melanoma. […] Accordingly, in some embodiments, the biomarker is an observed increase in CD8^+ T cells and/or CD4^+ T cells in a tumor relative to a control. In other embodiments, the biomarker is an increase in the ratio of CD8^+ T cells to Treg cells. In some embodiments, the increase is observed by immunohistochemistry or expression levels of one or both of CD8A and CD8B. In some embodiments, an increase in CD8^+ T cells and/or CD4^+ T cells or CD8^+ T cells/Treg ratio in a tumor sample from a patient who has undergone treatment with […]-001 or X4-136 correlates with an increased likelihood that the patient will benefit from continued treatment with […]-001 alone or in combination with an immunotherapeutic agent, e.g., a checkpoint inhibitor such as a PD-1 antagonist. In some embodiments, the PD-1 antagonist is selected from nivolumab and pembrolizumab, or a biosimilar or variant of such PD-1 antagonists. In some embodiments, the checkpoint inhibitor is nivolumab. In some embodiments, the checkpoint inhibitor is a nivolumab biosimilar or variant. In some embodiments, the checkpoint inhibitor is pembrolizumab. In some embodiments, the checkpoint inhibitor is a pembrolizumab biosimilar or variant. In some embodiments, the tumor is a solid tumor such as advanced or metastatic melanoma. […] In some embodiments, the biomarker is IDO1. In some embodiments, the biomarker is CXCL10. In some embodiments, the biomarker is CXCL9. In some embodiments, the biomarker is HLA-DRA. In some embodiments, the biomarker is STAT1. In some embodiments, the biomarker is IFN-γ. In some embodiments, the biomarker is two or more of IDOL, CXCL10, CXCL9, HLA-DRA, STAT1 and IFN-γ. In some embodiments, the biomarker is three or more of IDO1, CXCL10, CXCL9, HLA-DRA, STAT1 and IFN-γ. In some embodiments, the biomarker is four or more of IDOL, CXCL10, CXCL9, HLA-DRA, STAT1 and IFN-γ. In some embodiments, the biomarker is five or more of IDOL, CXCL10, CXCL9, HLA-DRA, STAT1 and IFN-γ. In some embodiments, the biomarker is all of IDOL, CXCL10, CXCL9, HLA-DRA, STAT1 and IFN-γ. In some embodiments, the biomarker is an increase of all of IDO1, CXCL10, CXCL9, HLA-DRA, STAT1 and IFN-γ. In some embodiments, an increase in one, two, three, four, five, or all of IDOL, CXCL10, CXCL9, HLA-DRA, STAT1 and IFN-γ in a tumor sample from a patient who has undergone treatment with […]-001 correlates with an increased likelihood that the patient will benefit from continued treatment with […]-001 alone or in combination with an immunotherapeutic agent, e.g., a checkpoint inhibitor such as a PD-1 antagonist. In some embodiments, the PD-1 antagonist is selected from nivolumab and pembrolizumab, or a biosimilar or variant of such PD-1 antagonists. In some embodiments, the checkpoint inhibitor is nivolumab. In some embodiments, the checkpoint inhibitor is a nivolumab biosimilar or variant. In some embodiments, the checkpoint inhibitor is pembrolizumab. In some embodiments, the checkpoint inhibitor is a pembrolizumab biosimilar or variant. In some embodiments, the tumor is a solid tumor such as advanced or metastatic melanoma. In some embodiments, the biomarker or the use thereof is one of those described in Ayers et al., Journal of Clinical Investigation 2017, 127(8), 2930-2940 [29] (“Ayers et al. (2017)”) or WO 2016/094377, each of which is hereby incorporated by reference. […] Accordingly, in some embodiments, the biomarker is maintenance or decrease of Treg levels in a tumor relative to a control. In some embodiments, the biomarker is the level of FoxP3 expression, which serves as a means to determine the Treg level. […]

[5] = solid tumors, e.g. advanced or metastatic melanoma

Pembrolizumab: humanized IgG4 kappa monoclonal antibody that blocks the interaction between PD-1 and its ligands
objective response rate [1]: 33%

NCCCCN(Cc1nc2ccccc2[nH]1)[C@H]1CCCc2cccnc21 [X4P]
tumor volumes (B16-OVA tumors): substantially reduced tumor volumes

ipilimumab: anti-CTLA-4 antibody
objective response rate [1]: 12%

c1cc(CN2CCCNCCNCCCNCC2)ccc1CN1CCCNCCNCCCNCC1 [AMD3100, reference compound]
T-cell accumulation among the cancer cells [2]: induced rapid T-cell accumulation
anti-tumor activity [3]: significant anti-tumor activity, including decreased metastasis and increased overall survival

Cc1cccnc1[C@H]1CCC[C@@H](c2ncccc2C)N1CCCCN [X4-136]
CTL signature gene expression in tumor samples or the tumor microenvironment ([4]; in vivo): increase
IFN-γ gene signature (panel of IFN-γ related genes) ([4]; in vivo): increase
PD-L1 expression in tumor samples and the tumor microenvironment ([4]; in vivo): increase
granzyme B (GZMB) expression in cancers [4, 5]: increases
levels of Treg cells [4, 5]: without significantly increasing
levels of macrophages in the tumor [4, 5]: without significantly modulating
observed numbers of CD8+ T cells and/or CD4+ T cells in cancers [4, 5]: increases
levels of the VISTA panel of biomarkers ([4]; tumor samples and the tumor microenvironment): modulate

Source: patent US20210349099A1, “CANCER BIOMARKERS AND METHODS OF USE THEREOF” (X4 Pharmaceuticals, Inc., priority 2017, published 2021)
